Test results published in publication PMC5587909, “Inhibition of the ATP Synthase Eliminates the Intrinsic Resistance of Staphylococcus aureus towards Polymyxins” (mBio, 2017).
Converted amounts (≈) assume the structure as drawn. Bridge positions count the residues as written; N and C are the ends. Square brackets hold non-standard residues; d marks the D form. Peptide text beside a SMILES is read from it. * marks the point of attachment. X1 = CC[C@H](C)CCCCC(=O)*; Dab = NCC[C@H](N)C(=O)O

Columns and labels:
[1] = system: S. aureus JE2 vraG transposon mutant (SAUSA300_0648); assay: microbe, parasite or virus in culture; settings: Etest on TSA
Description: (§1) Staphylococcus aureus is intrinsically resistant to the clinically approved cationic antimicrobial peptides polymyxin B (PMB) and colistin ([1], [16]). […] The MIC for PMB was subsequently determined using Etests for the identified mutants.
(§2) The strains used in this study include S. aureus strain JE2 (plasmid-cured derivative of USA300 LAC) and all derivative strains within the Nebraska Transposon Mutant Library (NTML), consisting of 1,920 unique transposon mutants with inactivation of nonessential genes ([15]). The bursa aurealis transposon used to create the collection contains the resistance cassette ermB, which confers resistance to erythromycin ([15]). Additionally we used S. aureus SA113 and two derivatives, SA113 ΔdltA ([9]) and SA113 ΔmprF ([10]). All bacterial strains were cultured at 37°C in tryptic soy broth (TSB) or on tryptic soy agar (TSA), with antimicrobial agents added as indicated. Two methods have been employed to determine MICs to various antimicrobial agents. (i) A 2-fold broth microdilution assay in TSB (100 µl) with an initial inoculum of approximately 5 × 10^5 cells/ml was employed to determine the MICs of polymyxin B sulfate (Sigma), gallidermin (Santa Cruz Biotechnology), nisin (Sigma), bacitracin (Sigma), and LL-37 (Isca Biochemicals). […] The MIC was determined upon incubation at 37°C for 22 h. […]

[2] = system: S. aureus JE2 vraF transposon mutant (SAUSA300_0647); assay: microbe, parasite or virus in culture; settings: Etest on TSA
Description: as §1, §2

[3] = system: S. aureus JE2 atpA transposon mutant (SAUSA300_2060); assay: microbe, parasite or virus in culture; settings: Etest on TSA
Description: as §1, §2

[4] = system: S. aureus JE2 graR transposon mutant (SAUSA300_0645); assay: microbe, parasite or virus in culture; settings: Etest on TSA
Description: as §1, §2

[5] = system: S. aureus JE2 (wild type); assay: microbe, parasite or virus in culture; settings: Etest on TSA, 37°C, 22 h; wild type S. aureus JE2
Description: as §1, §2

[6] = system: S. aureus JE2 vraG mutant; type: cell-based, Staphylococcus aureus; settings: Etest on cation-adjusted Mueller-Hinton agar, 37°C, 22 h
Procedure: (§3) It has been reported that growth medium composition can affect polymyxin MIC ([23]): therefore, we also tested polymyxin B MICs of the WT and atpA, graR, vraG, and vraF mutants by employing the Etest on cation-adjusted Mueller-Hinton (MH) agar. […] Polymyxin B breakpoints for Pseudomonas aeruginosa are susceptible at a MIC of ≤2 μg/ml, intermediate at a MIC of 4 μg/ml, and resistant at a MIC of ≥8 μg/ml, whereas for Acinetobacter spp., a MIC of ≥4 μg/ml is considered resistant.
(§4) The strains used in this study include S. aureus strain JE2 (plasmid-cured derivative of USA300 LAC) and all derivative strains within the Nebraska Transposon Mutant Library (NTML), consisting of 1,920 unique transposon mutants with inactivation of nonessential genes ([15]). The bursa aurealis transposon used to create the collection contains the resistance cassette ermB, which confers resistance to erythromycin ([15]). Additionally we used S. aureus SA113 and two derivatives, SA113 ΔdltA ([9]) and SA113 ΔmprF ([10]). All bacterial strains were cultured at 37°C in tryptic soy broth (TSB) or on tryptic soy agar (TSA), with antimicrobial agents added as indicated. Two methods have been employed to determine MICs to various antimicrobial agents. (i) A 2-fold broth microdilution assay in TSB (100 µl) with an initial inoculum of approximately 5 × 10^5 cells/ml was employed to determine the MICs of polymyxin B sulfate (Sigma), gallidermin (Santa Cruz Biotechnology), nisin (Sigma), bacitracin (Sigma), and LL-37 (Isca Biochemicals). (ii) An Etest (BioMérieux) performed on TSA plates was employed to determine MICs for polymyxin B, colistin, ciprofloxacin, oxacillin, linezolid, gentamicin, vancomycin, and daptomycin. The MIC was determined upon incubation at 37°C for 22 h. When indicated, the Etest (BioMérieux) was performed on Mueller-Hinton agar plates (cation adjusted for calcium and magnesium).

[7] = system: S. aureus JE2 vraF mutant; type: cell-based, Staphylococcus aureus; settings: Etest on cation-adjusted Mueller-Hinton agar, 37°C, 22 h
Procedure: as §3, §4

S. aureus JE2 (WT) = type: cell-based, Staphylococcus aureus; settings: Etest on cation-adjusted Mueller-Hinton agar, 37°C, 22 h
Procedure: as §3, §4

[8] = system: S. aureus JE2 atpA mutant; type: cell-based, Staphylococcus aureus; settings: Etest on cation-adjusted Mueller-Hinton agar, 37°C, 22 h
Procedure: as §3, §4

[9] = system: S. aureus JE2 graR mutant; type: cell-based, Staphylococcus aureus; settings: Etest on cation-adjusted Mueller-Hinton agar, 37°C, 22 h
Procedure: as §3, §4

[10] = system: S. aureus JE2 graS transposon mutant (SAUSA300_0646); type: cell-based, Staphylococcus aureus; settings: Etest on TSA
Description: (§5) Staphylococcus aureus is intrinsically resistant to the clinically approved cationic antimicrobial peptides polymyxin B (PMB) and colistin ([1], [16]). […] The MIC for PMB was subsequently determined using Etests for the identified mutants. Nineteen mutants were confirmed to be at least 2-fold more susceptible than the WT (Table 1). As expected, we identified transposon insertions in graS, graR, vraF, and vraG, corroborating previous work on these determinants in S. aureus in relation to increased PMB susceptibility ([12]).
as §4

[11] = system: S. aureus JE2 transposon mutant SAUSA300_1254 (hypothetical protein); type: cell-based, Staphylococcus aureus; settings: Etest on TSA, 37°C, 22 h
Description: as §5, §4

[12] = system: S. aureus JE2 transposon mutant SAUSA300_1495 (hypothetical protein); type: cell-based, Staphylococcus aureus; settings: Etest on TSA, 37°C, 22 h
Description: as §5, §4

[13] = system: S. aureus JE2 transposon mutant SAUSA300_0980 (hypothetical protein); type: cell-based, Staphylococcus aureus; settings: Etest on TSA, 37°C, 22 h
Description: as §5, §4

[14] = system: S. aureus JE2 trkA transposon mutant (SAUSA300_0988); type: cell-based, Staphylococcus aureus; settings: Etest on TSA, 37°C, 22 h
Description: as §5, §4

[15] = system: S. aureus JE2 lspA transposon mutant (SAUSA300_1089); type: cell-based, Staphylococcus aureus; settings: Etest on TSA, 37°C, 22 h
Description: as §5, §4

[16] = system: S. aureus JE2 atpH transposon mutant (SAUSA300_2061); type: cell-based, Staphylococcus aureus; settings: Etest on TSA
Description: as §5, §4

In the case of `CC[C@H](C)CCCCC(=O)N[C@@H](CCN)C(=O)N[C@H](C(=O)N[C@@H](CCN)C(=O)N[C@H]1CCNC(=O)[C@H]([C@@H](C)O)NC(=O)[C@H](CCN)NC(=O)[C@H](CCN)NC(=O)[C@H](CC(C)C)NC(=O)[C@@H](Cc2ccccc2)NC(=O)[C@H](CCN)NC1=O)[C@@H](C)O` [Polymyxin B, polymyxin B] (X1-[Dab]T[Dab][Dab][Dab][dF]L[Dab][Dab]T; lactam 4-C (inferred); N-terminus assumed), the MIC ([1]; 37°C, 22 h, vraG mutant) is reported as 16 µg/mL (≈ 13.3 µM), the “fold reduction in MIC / increased sensitivity relative to WT” value ([1]; vraG mutant vs WT JE2) is reported as 8 fold and the MIC ([2]; 37°C, 22 h, vraF mutant) is reported as 16 µg/mL (≈ 13.3 µM). The “fold reduction in MIC / increased sensitivity relative to WT” value ([2]; vraF mutant vs WT JE2) was 8 fold, the MIC ([3]; 37°C, 22 h, atpA mutant) was 16 µg/mL (≈ 13.3 µM) and the “fold reduction in MIC / increased sensitivity relative to WT” value ([3]; atpA mutant vs WT JE2) was 8 fold. For the same molecule, the MIC ([4]; 37°C, 22 h, graR mutant) was 16 µg/mL (≈ 13.3 µM), the “fold reduction in MIC / increased sensitivity relative to WT” value ([4]; graR mutant vs WT JE2) was 8 fold and the MIC [5] was 128 µg/mL (≈ 106 µM). For the same molecule, the MIC [6] was 1.5 to 2 µg/mL, the MIC [7] was 1.5 to 2 µg/mL and the MIC (S. aureus JE2 (WT)) was 8 to 16 µg/mL. It also gave an MIC [8] of 2 to 4 µg/mL, an MIC [9] of 1 to 2 µg/mL and an MIC ([10]; 37°C, 22 h, graS mutant) of 24 µg/mL (≈ 19.9 µM). The “fold reduction in MIC relative to WT” value ([10]; graS mutant vs WT JE2) was 8 fold, the MIC [11] was 48 µg/mL (≈ 39.9 µM) and the MIC [12] was 64 µg/mL (≈ 53.2 µM). The MIC [13] was 48 µg/mL (≈ 39.9 µM), the MIC [14] was 48 µg/mL (≈ 39.9 µM) and the MIC [15] was 64 µg/mL (≈ 53.2 µM). The MIC ([16]; 37°C, 22 h, atpH mutant) was 16 µg/mL (≈ 13.3 µM) and the “fold reduction in MIC relative to WT” value ([16]; atpH mutant vs WT JE2) was 8 fold.
